Drawing on patent US7888289B2, “Heterocyclylethylbenzamide derivatives” (Bayer Cropscience AG, priority 2005, dated 2011), this text covers pest or weed control for ten compounds.

One assay has as its system Alternaria brassicae. Briefly: In vivo test on Alternaria brassicae (radish plants, preventive spray). Particulars: dose of 110 ppm, radish plants (Pernot variety), contaminated 24 hours after treatment, grading 6 to 7 days after contamination vs control plants, read-out: protection (good (at least 50%) to total). As for the experimental part:
The active ingredient tested is prepared by potter homogenisation in a concentrated suspension type formulation at 100 g/l. This suspension is then diluted with water to obtain the desired active material concentration.
Radish plants (Pernot variety) in starter cups, sown on a 50/50 peat soil-pozzolana substrate and grown at 18-20° C., are treated at the cotyledon stage by spraying with the aqueous suspension described above.
Plants, used as controls, are treated with an aqueous solution not containing the active material.
After 24 hours, the plants are contaminated by spraying them with an aqueous suspension of Alternaria brassicae spores (40,000 spores per cm^3). The spores are collected from a 12-13-day-old culture.
The contaminated radish plants are incubated for 6-7 days at about 18° C., under a humid atmosphere.
Grading is carried out 6 to 7 days after the contamination, in comparison with the control plants.
As to `Cc1ccsc1CCNC(=O)c1ccccc1C(F)F` [Compound A-1], the pest or weed control at 110 ppm is at least 50%.

Turning to `Cc1nc(CCNC(=O)c2ccccc2C(F)(F)F)sc1C` [Compound B-2], the pest or weed control at 110 ppm is at least 50%.

Regarding `COc1cc(C(F)(F)F)nn1CCNC(=O)c1ccccc1Br` [Compound E-1], the pest or weed control at 110 ppm was at least 50%.

The assay is the same for the next values; noted with them: dose of 330 ppm, radish plants (Pernot variety), contaminated 24 hours after treatment, grading 6 to 7 days after contamination vs control plants, read-out: protection (good (at least 50%) to total).
As for `O=C(NCCc1sccc1Cl)c1ccccc1C(F)(F)F` [Compound A-5], the pest or weed control at 330 ppm is at least 50%.

Turning to `O=C(NCCc1sccc1Cl)c1ccccc1Br` [Compound A-7], the pest or weed control at 330 ppm is at least 50%.

Regarding `Cc1csc(CCNC(=O)c2ccccc2C(F)(F)F)n1` [Compound B-1], the pest or weed control at 330 ppm is at least 50%.

As for `Cc1nc(C)c(CCNC(=O)c2ccccc2Br)s1` [Compound C-2], the pest or weed control at 330 ppm is at least 50%.

Consider `Cn1cc(CCNC(=O)c2ccccc2C(F)(F)F)c(C(F)(F)F)n1` [Compound D-1], for which the pest or weed control at 330 ppm is at least 50%.

On to `Cn1cc(CCNC(=O)c2ccccc2Cl)c(C(F)(F)F)n1` [Compound D-4], for which the pest or weed control at 330 ppm was at least 50%.

For the compound `Cc1ccccc1C(=O)NCCc1cn(C)nc1C(F)(F)F` [Compound D-5], the pest or weed control at 330 ppm is at least 50%.
